The record followed here is patent US20240180817A1, “PLANT FERMENTED LIQUID, PLANT FERMENTED PRODUCT PRODUCED USING GLUCONOBACTER THAILANDICUS STRAIN AND USE THEREOF” (LG HOUSEHOLD & HEALTH CARE LTD., priority 2022, published 2024).

Structures are written as SMILES.

The experiment deals with human keratinocyte HaCaT. The experiment is described as follows: Hyaluronic acid synthesis, Quantikine ELISA Hyaluronan. In kind it is cell-based. The following applies: 30 ppb, 72 hours. The protocol: Samples were treated with human keratinocyte HaCaT for 72 hours at each concentration. Hyaluronic acid synthesis was compared with the control group (DMEM treatment containing 0% serum) using Quantikine ELISA Hyaluronan from R&D Systems to quantify the moisturizing ability.
In general terms: An ELISA detects its analyte on a solid surface through an enzyme-linked reagent.

Take `CC1=C(/C=C/C(C)=C/C=C/C(C)=C/C(=O)O)C(C)(C)CCC1` [Retinoic acid]: the “Hyaluronic Acid Synthesis Ability” value was 18.6 % of control.
